Measurements published in patent US12714715B2, “Agent for treating myopia, preventing myopia and/or suppressing myopia progression” (SANTEN PHARMACEUTICAL CO., LTD., priority 2020, dated 2026).

Key:
[1] = test system: guinea pig myopia model; assay: Test on suppression of myopia progression (axial length elongation and refractive error) in guinea pig myopia model; assay type: in vivo, guinea pig (Slc:Hartley); conditions: for Difference of axial lengths / Difference of refraction: 10 μL topical to goggled right eye once daily 14 days, right eye − left eye, average n=6; for Difference of axial lengths / Difference of refraction / Suppression rate of axial length elongation / Suppression rate of refraction / Suppression rate of refractive error: day 14; for Suppression rate of axial length elongation / Suppression rate of refraction / Suppression rate of refractive error: vs vehicle control group
Procedure: According to the following procedures, the effect of AFDX0250 on the suppression of myopia progression (the axial length elongation and the refractive error) was evaluated.
AFDX0250 was dissolved in purified water with a buffering agent and a tonicity agent to prepare 0.5% AFDX0250 solution. 1 mol/L sodium hydroxide reagent solution or dilute hydrochloric acid was added to the solution to adjust the pH thereof to neutral. Also, a buffering agent and a tonicity agent were dissolved in purified water to prepare a neutral vehicle. 9.8 mL of the vehicle was mixed with 0.2 mL of 0.5% AFDX0250 solution and stirred to prepare 0.01% AFDX0250 solution. 3 mL, 4 mL and 4.5 mL of the vehicles were mixed with 2 mL, 1 mL and 0.5 mL of 0.01% AFDX0250 solutions, respectively, and stirred to prepare 0.004%, 0.002% and 0.001% AFDX0250 solutions.
A test tube with a diameter of 18 mm was cut off at the level of 10 mm from the bottom, and the cut-off bottom part was glued to one side of Velcro tape (about 20 mm square) with a hole of an appropriate diameter in the center with an adhesive agent to prepare a lens (goggle). 3-week-old guinea pigs (Slc:Hartley) (n=30) were obtained, and the prepared goggle was covered to the right eye of each guinea pig with an adhesive agent to induce myopia to the guinea pigs. The left eye thereof without goggle was used as control.
The […] group, 0.004% AFDX0250 solution administration group, […] group (control group) (n=6 per group). In the AFDX0250 solution administration groups, 10 μL of the AFDX0250 solution in each concentration was topically administered to the right eye of each guinea pig once daily for 14 days from the day when the right eye was covered with the goggle (day 0) to day 13. In the control group, 10 μL of the vehicle was topically administered to the right eye of each guinea pig once daily for 14 days from the day when the right eye was covered with the goggle (day 0) to day 13. In the all groups, 10 μL of the vehicle was topically administered to the left eye at the same frequency of administration as that of each group daily for 14 days from day 0 to day 13. The guinea pigs were reared under a normal rearing condition.
On day 14 from the myopia induction, the axial lengths of right and left eyeballs were measured with an ultrasound axial length measurement device ECHOSCAN US-500 (A-scan) (NIDEK CO., LTD.), and the refractions were measured with the auto refractometer AR-1a (NIDEK CO., LTD.). The difference of axial lengths and the suppression rate of the axial length elongation as well as the difference of refraction and the suppression rate of the refractive error were calculated according to the following formulae. The calculation was performed in Microsoft Excel. Difference of axial lengths (mm)=Axial length of right eye (mm)−Axial length of left eye (mm) Suppression rate of axial length elongation (%)=(1−Difference of axial lengths in AFDX0250 solution administration group/Difference of axial lengths in control group)×100 (Formula) Difference of refraction (D)=Refraction of right eye (D)−Refraction of left eye (D) Suppression rate of refractive error (%)=(1−Difference of refraction in AFDX0250 solution administration group/Difference of refraction in control group)×100 (Formula) (Test Result)
AFDX0250 was dissolved in purified water with a buffering agent and a tonicity agent to prepare 0.5% AFDX0250 solution. 1 mol/L sodium hydroxide reagent solution or dilute hydrochloric acid was added to the solution to adjust the pH thereof to neutral. Also, a buffering agent and a tonicity agent were dissolved in purified water to prepare a neutral vehicle. 4 mL and 4.8 mL of vehicles were mixed with 1 mL and 0.2 mL of 0.5% AFDX0250 solutions, respectively, and stirred to prepare 0.1% and 0.02% of AFDX0250 solutions. Also, 4 mL of the vehicle was mixed with 1 mL of 0.02% AFDX0250 solution and stirred to prepare 0.004% AFDX0250 solution. […]

[2] = test system: guinea pigs; assay: Evaluation of mydriatic action (pupil diameter, pupillary light reflex) after repeated topical administration to one eye; assay type: in vivo, guinea pig; conditions: for Pupil diameter before administration / Decreased pupillary light reflex / Maximum pupil diameter / Measurement time of maximum pupil diameter: 10 μL topical to left eye once daily 5 days; for Pupil diameter before administration: before administration on day 5, average of 3 guinea pigs; for Decreased pupillary light reflex / Measurement time of maximum pupil diameter: day 5; for Maximum pupil diameter: longest average diameter among measurement times on day 5
Procedure: An atropine solution was repeatedly topically administered to one eye of a guinea pig to evaluate the effect of the solution on mydriasis.
Atropine sulfate hydrate and glycerin were dissolved in water for injection to prepare 0.001%, 0.0003% and 0.0001% atropine solutions without adjusting the pH.
Each of the prepared solutions was topically administered to the left eye of guinea pigs (the left eyes of 3 guinea pigs for each solution) in a volume of 10 μL once daily for 5 days. The pupil diameter of each guinea pig was measured before the administration on day 5 as well as 1, 2 and 4 hours after the administration to observe the pupillary light reflex. The measured pupil diameters of each guinea pig at each measurement time were averaged to obtain the average value. The obtained average value was defined as the average pupil diameter. Among each average pupil diameter at each measurement time, the longest diameter was defined as the maximum pupil diameter.

[3] = Example 1, 0.001% solution, topical once daily 14 days
[4] = Example 1, 0.002% solution, topical once daily 14 days
[5] = Example 1, 0.004% solution, topical once daily 14 days
[6] = Example 1, 0.01% solution, topical once daily 14 days
[7] = Example 2, 0.004% solution, topical once daily 14 days
[8] = Example 2, 0.02% solution, topical once daily 14 days
[9] = Example 2, 0.1% solution, topical once daily 14 days
[10] = Example 2, 0.5% solution, topical once daily 14 days
[11] = Comparative Example 3, 0.0001% solution
[12] = Comparative Example 3, 0.0003% solution
[13] = Comparative Example 3, 0.001% solution

CCN(CC)CC1CCCCN1CC(=O)N1c2ccccc2C(=O)Nc2cccnc21 (single isomer, unassigned; (+)) [AFDX0250, (+)-11-[2-[2-[(diethylamino)methyl]-1-piperidinyl]acetyl]-5,11-dihydro-6H-pyrido[2,3-b][1,4]benzodiazepin-6-one]
Difference of axial lengths ([1]; Example 1, 0.001% solution): 0.17 mm | Difference of refraction ([1]; Example 1, 0.001% solution): −6.12 D | Suppression rate of axial length elongation [1, 3]: 15.85% | Suppression rate of refraction [1, 3]: 22.78% | Difference of axial lengths ([1]; Example 1, 0.002% solution): 0.09 mm | Difference of refraction ([1]; Example 1, 0.002% solution): −2.78 D | Suppression rate of axial length elongation [1, 4]: 55.46% | Suppression rate of refraction [1, 4]: 64.95% | Difference of axial lengths ([1]; Example 1, 0.004% solution): 0.07 mm | Difference of refraction ([1]; Example 1, 0.004% solution): −2.39 D | Suppression rate of axial length elongation [1, 5]: 63.39% | Suppression rate of refraction [1, 5]: 69.80% | Difference of axial lengths ([1]; Example 1, 0.01% solution): 0.06 mm | Difference of refraction ([1]; Example 1, 0.01% solution): −3.63 D | Suppression rate of axial length elongation [1, 6]: 68.58% | Suppression rate of refraction [1, 6]: 54.19% | Difference of axial lengths ([1]; Example 2, 0.004% solution): 0.07 mm | Difference of refraction ([1]; Example 2, 0.004% solution): −3.25 D | Suppression rate of axial length elongation [1, 7]: 66.85% | Suppression rate of refractive error [1, 7]: 59.27% | Difference of axial lengths ([1]; Example 2, 0.02% solution): 0.05 mm | Difference of refraction ([1]; Example 2, 0.02% solution): −2.52 D | Suppression rate of axial length elongation [1, 8]: 74.16% | Suppression rate of refractive error [1, 8]: 68.43% | Difference of axial lengths ([1]; Example 2, 0.1% solution): 0.04 mm | Difference of refraction ([1]; Example 2, 0.1% solution): −2.05 D | Suppression rate of axial length elongation [1, 9]: 79.21% | Suppression rate of refractive error [1, 9]: 74.35% | Difference of axial lengths ([1]; Example 2, 0.5% solution): 0.02 mm | Difference of refraction ([1]; Example 2, 0.5% solution): −2.03 D | Suppression rate of axial length elongation [1, 10]: 88.48% | Suppression rate of refractive error [1, 10]: 74.64% | Effect on the axial length elongation and the refractive error (summary in words) ([1]; summary of Examples 1 and 2 (AFDX0250) and Comparative Examples 1 and 2 (AFDX0116), topical once daily 14 days): strongly suppressed the axial length elongation and the refractive error | Mydriatic action (pupil diameter and pupillary light reflex, in words) ([2]; guinea pig, in vivo): increased the pupil diameter and decreased the pupillary light reflex

CN1[C@@H]2CC[C@H]1CC(OC(=O)C(CO)c1ccccc1)C2.CN1[C@@H]2CC[C@H]1CC(OC(=O)C(CO)c1ccccc1)C2.O.O=S(=O)(O)O (stereo partly shown) [atropine, Atropine sulfate hydrate]
Pupil diameter before administration [2, 11]: 2.3 mm | Decreased pupillary light reflex [2, 11]: 0/3 | Maximum pupil diameter [2, 11]: 2.8 mm | Pupil diameter before administration [2, 12]: 3.0 mm | Decreased pupillary light reflex [2, 12]: 1/3 | Measurement time of maximum pupil diameter [2, 12]: 1 h | Maximum pupil diameter [2, 12]: 3.8 mm | Mydriatic action (pupil diameter and pupillary light reflex, in words) ([2]; Comparative Example 3, 0.001% and 0.0003% atropine solution administration groups): the increased pupil diameter and the decreased pupillary light reflex were found | Pupil diameter before administration [2, 13]: 2.6 mm | Decreased pupillary light reflex [2, 13]: 3/3 | Measurement time of maximum pupil diameter [2, 13]: 1 h | Maximum pupil diameter [2, 13]: 4.9 mm
